{
  "source": "patent US20120258980A1",
  "about": "“Antibacterial Agent for Drug-Resistant Bacteria, Method for Screening for Same, and Use of Same” (priority 2009, published 2012)",
  "key": {"[1]": {"test_system": "methicillin-susceptible S. aureus (MSSA), MRSA and mutants thereof", "test": "MIC measurement, Test Example 3 (MSSA, MRSA and sequential gyrA/grlA quinolone-resistant mutants)", "type": "cell-based, Staphylococcus aureus", "excerpt": "That is, the first-step quinolone-resistant mutants are bacterial strains which are the same as their parent strains (clinical isolates) except that the genes shown in the corresponding parts of Table 1-1 are mutated. The second-step quinolone-resistant mutants are bacterial strains which are the same as the first-step quinolone-resistant mutants except that the genes shown in the corresponding parts of Table 1-1 are further mutated. The third-step quinolone-resistant mutants are bacterial strains which are the same as the second-step quinolone-resistant mutants except that the genes shown in the corresponding parts of Table 1-1 are further mutated. The fourth-step quinolone-resistant strain is a bacterial strain which is the same as the third-step quinolone-resistant mutant bacteria except that the gene shown in the corresponding part of Table 1-1 is further mutated.\n(§1) Each of the bacterial strains listed in Table 1-1 was shake-cultured at 37° C. overnight in 4 mL of a medium (Tryptical Soy Broth: TSB, product of Becton Dickinson and Company). FDA209P was used as a control.\n(§2) After completion of culturing, the resultant culture was suspended in a cation-adjusted Mueller Hinton Broth (CAMHB, product of Becton Dickinson and Company). Then, the obtained bacterial culture was adjusted in absorbance with the CAMHB so that the absorbance at 578 nm of the bacterial culture was adjusted to 0.3 measured by an absorption spectrometer. In addition, the resultant bacterial culture was 500-fold diluted with the CAMHB.\n(§3) Each of the 500-fold diluted, pre-cultured bacterial cultures was added at 50 μL/well to the CAMHB containing the quinolones and the nybomycins at various concentrations (50 μL/well), followed by statically culturing at 37° C. overnight.\n(§4) After completion of culturing, the growth of the bacteria was visually determined based on turbidity to measure MIC in each bacterial strain."}, "Enterococcus faecalis": {"test_system": "Enterococcus faecalis", "test": "MIC measurement, Test Example 6 (enterococcus)", "type": "cell-based", "protocol": "as §1, §2, §3, §4\nQuinolones and nybomycins were evaluated for antibacterial activity against Enterococcus faecalis shown in Table 6, wherein the other strains than NCTC12201 and NCTC12203 were subdivided from Shionogi & Co., Ltd (note that these strains are available also from the Department of Bacteriology, Juntendo University). The NCTC strains are both vancomycin-resistant E. faecalis and available from the National Collection of Type Cultures (NCTC)."}, "[2]": {"test_system": "MRSA, CA-MRSA and MSSA of Staphylococcus aureus", "test": "MIC measurement, Test Example 4 (MRSA, CA-MRSA and MSSA strains)", "type": "cell-based", "protocol": "as §1, §2, §3, §4\nGlycopeptides, imipenem, quinolones and nybomycins were studied for antibacterial activity against the bacterial strains listed in Table 2-1; i.e., MRSA, CA-MRSA and MSSA of Staphylococcus aureus."}},
  "data": [
    {"smiles": "Cl.O=C(O)c1cn(C2CC2)c2cc(N3CCNCC3)c(F)cc2c1=O", "note": "[CPFX, ciprofloxacin chloride]", "values": [
      {"measurement": "MIC", "setting": "[1]; MR5867-1, first-step quinolone-resistant mutant, grlA E84K", "result": 2, "unit": "µg/mL"},
      {"measurement": "MIC", "setting": "[1]; MR5867-2, second-step mutant, further gyrA S84L", "result": 32, "unit": "µg/mL"},
      {"measurement": "MIC", "setting": "[1]; MS5935-1, first-step quinolone-resistant mutant, grlA S80F", "result": 2, "unit": "µg/mL"},
      {"measurement": "MIC", "setting": "[1]; MS5935-2, second-step mutant, further gyrA S84L", "result": 32, "unit": "µg/mL"},
      {"measurement": "MIC", "setting": "[1]; MS5952-1, first-step quinolone-resistant mutant, grlA S80Y", "result": 2, "unit": "µg/mL"},
      {"measurement": "MIC", "setting": "[1]; MS5952-2, second-step mutant, further gyrA S84L", "result": 8, "unit": "µg/mL"},
      {"measurement": "MIC", "setting": "[1]; MS5952-3, third-step mutant, further grlA A116V", "result": 64, "unit": "µg/mL"},
      {"measurement": "MIC", "setting": "Enterococcus faecalis; E. faecalis 36-15672, quinolone-susceptible enterococci", "result": 1, "unit": "µg/mL"},
      {"measurement": "MIC", "setting": "Enterococcus faecalis; E. faecalis 36-15673, quinolone-susceptible enterococci", "result": 1, "unit": "µg/mL"},
      {"measurement": "MIC", "setting": "Enterococcus faecalis; E. faecalis 36-15678, quinolone-susceptible enterococci", "result": 1, "unit": "µg/mL"},
      {"measurement": "MIC", "setting": "Enterococcus faecalis; E. faecalis 36-15686, quinolone-resistant enterococci", "result": 128, "unit": "µg/mL"},
      {"measurement": "MIC", "setting": "Enterococcus faecalis; E. faecalis 36-15688, quinolone-susceptible enterococci", "result": 1, "unit": "µg/mL"},
      {"measurement": "MIC", "setting": "Enterococcus faecalis; E. faecalis 36-15694, quinolone-resistant enterococci", "result": 32, "unit": "µg/mL"},
      {"measurement": "MIC", "setting": "Enterococcus faecalis; E. faecalis 36-15696, quinolone-susceptible enterococci", "result": 1, "unit": "µg/mL"},
      {"measurement": "MIC", "setting": "Enterococcus faecalis; E. faecalis 36-15703, quinolone-resistant enterococci", "result": 32, "unit": "µg/mL"},
      {"measurement": "MIC", "setting": "Enterococcus faecalis; E. faecalis 36-15716, quinolone-resistant enterococci", "result": 128, "unit": "µg/mL"},
      {"measurement": "MIC", "setting": "Enterococcus faecalis; E. faecalis 36-15718, quinolone-susceptible enterococci", "result": 1, "unit": "µg/mL"},
      {"measurement": "MIC", "setting": "Enterococcus faecalis; E. faecalis 36-15720, quinolone-susceptible enterococci", "result": 2, "unit": "µg/mL"},
      {"measurement": "MIC", "setting": "Enterococcus faecalis; E. faecalis 36-15722, quinolone-resistant enterococci", "result": 64, "unit": "µg/mL"},
      {"measurement": "MIC", "setting": "Enterococcus faecalis; E. faecalis 36-15726, quinolone-resistant enterococci", "result": 64, "unit": "µg/mL"},
      {"measurement": "MIC", "setting": "Enterococcus faecalis; E. faecalis 36-15730, quinolone-susceptible enterococci", "result": 2, "unit": "µg/mL"},
      {"measurement": "MIC", "setting": "Enterococcus faecalis; E. faecalis 36-15736, quinolone-susceptible enterococci", "result": 1, "unit": "µg/mL"},
      {"measurement": "MIC", "setting": "Enterococcus faecalis; E. faecalis 36-15741, quinolone-susceptible enterococci", "result": 2, "unit": "µg/mL"},
      {"measurement": "MIC", "setting": "Enterococcus faecalis; E. faecalis NCTC12201, vancomycin-resistant (VRE), quinolone-susceptible enterococci", "result": 1, "unit": "µg/mL"},
      {"measurement": "MIC", "setting": "Enterococcus faecalis; E. faecalis NCTC12203, vancomycin-resistant (VRE), quinolone-susceptible enterococci", "result": 1, "unit": "µg/mL"},
      {"measurement": "MIC", "setting": "[2]; ISA12-1, MRSA", "result": 0.5, "unit": "µg/mL"},
      {"measurement": "MIC", "setting": "[2]; ISA35-1, MRSA", "result": 4, "unit": "µg/mL"},
      {"measurement": "MIC", "setting": "[2]; ISA51-1, MSSA", "result": 0.5, "unit": "µg/mL"},
      {"measurement": "MIC", "setting": "[2]; ISA58-1, MRSA", "result": 0.5, "unit": "µg/mL"},
      {"measurement": "MIC", "setting": "[2]; ISA73-1, MSSA", "result": 0.5, "unit": "µg/mL"},
      {"measurement": "MIC", "setting": "[2]; KBSA34, MRSA", "result": 0.5, "unit": "µg/mL"},
      {"measurement": "MIC", "setting": "[2]; KBSA72, MRSA", "result": 128, "unit": "µg/mL"},
      {"measurement": "MIC", "setting": "[2]; KBSA96, MRSA", "result": 32, "unit": "µg/mL"},
      {"measurement": "MIC", "setting": "[2]; KBSA171, MRSA", "result": 64, "unit": "µg/mL"},
      {"measurement": "MIC", "setting": "[2]; KSA24, MRSA", "result": 32, "unit": "µg/mL"},
      {"measurement": "MIC", "setting": "[2]; KSA31, MRSA", "result": 8, "unit": "µg/mL"},
      {"measurement": "MIC", "setting": "[2]; KSA36, MRSA", "result": 128, "unit": "µg/mL"},
      {"measurement": "MIC", "setting": "[2]; USA300 FPR3757, CA-MRSA", "result": 16, "unit": "µg/mL"}
    ]},
    {"smiles": "C[C@@H](O)[C@H]1C(=O)N2C(C(=O)O)=C(SCCN=CN)C[C@H]12", "note": "[IPM, imipenem]", "values": [
      {"measurement": "MIC", "setting": "[2]; Staphylococcus aureus, ATCC 29213 / MRSA / MSSA, ATCC 29213, MSSA", "result": "< 0.03", "unit": "µg/mL"},
      {"measurement": "MIC", "setting": "[2]; Staphylococcus aureus, COL, MRSA", "result": 64, "unit": "µg/mL"},
      {"measurement": "MIC", "setting": "[2]; Staphylococcus aureus, FDA209P / MRSA / MSSA, FDA209P, MSSA", "result": "< 0.03", "unit": "µg/mL"},
      {"measurement": "MIC", "setting": "[2]; Staphylococcus aureus, ISA12-1, MRSA", "result": 16, "unit": "µg/mL"},
      {"measurement": "MIC", "setting": "[2]; Staphylococcus aureus, ISA12-2, MRSA", "result": 16, "unit": "µg/mL"},
      {"measurement": "MIC", "setting": "[2]; Staphylococcus aureus, ISA35-1, MRSA", "result": 1, "unit": "µg/mL"},
      {"measurement": "MIC", "setting": "[2]; Staphylococcus aureus, ISA37-1, MSSA", "result": 0.125, "unit": "µg/mL"},
      {"measurement": "MIC", "setting": "[2]; Staphylococcus aureus, ISA49-1, MSSA", "result": 0.25, "unit": "µg/mL"},
      {"measurement": "MIC", "setting": "[2]; Staphylococcus aureus, ISA51-1, MSSA", "result": 0.25, "unit": "µg/mL"},
      {"measurement": "MIC", "setting": "[2]; Staphylococcus aureus, ISA56-3, MRSA", "result": 16, "unit": "µg/mL"},
      {"measurement": "MIC", "setting": "[2]; Staphylococcus aureus, ISA58-1, MRSA", "result": 0.125, "unit": "µg/mL"},
      {"measurement": "MIC", "setting": "[2]; Staphylococcus aureus, ISA62-1, MRSA", "result": 2, "unit": "µg/mL"},
      {"measurement": "MIC", "setting": "[2]; Staphylococcus aureus, ISA73-1, MSSA", "result": 0.25, "unit": "µg/mL"},
      {"measurement": "MIC", "setting": "[2]; Staphylococcus aureus, KBSA32, MRSA", "result": 0.25, "unit": "µg/mL"},
      {"measurement": "MIC", "setting": "[2]; Staphylococcus aureus, KBSA34, MRSA", "result": 0.25, "unit": "µg/mL"},
      {"measurement": "MIC", "setting": "[2]; Staphylococcus aureus, KBSA72, MRSA", "result": 0.125, "unit": "µg/mL"},
      {"measurement": "MIC", "setting": "[2]; Staphylococcus aureus, KBSA96, MRSA", "result": 0.25, "unit": "µg/mL"},
      {"measurement": "MIC", "setting": "[2]; Staphylococcus aureus, KBSA171, MRSA", "result": 0.25, "unit": "µg/mL"},
      {"measurement": "MIC", "setting": "[2]; Staphylococcus aureus, KSA24, MRSA", "result": 0.5, "unit": "µg/mL"},
      {"measurement": "MIC", "setting": "[2]; Staphylococcus aureus, KSA31, MRSA", "result": 0.125, "unit": "µg/mL"},
      {"measurement": "MIC", "setting": "[2]; Staphylococcus aureus, KSA36, MRSA", "result": 0.5, "unit": "µg/mL"},
      {"measurement": "MIC", "setting": "[2]; Staphylococcus aureus, MRSA / MSSA / NCTC 8325, NCTC 8325, MSSA", "result": "≤ 0.063", "unit": "µg/mL"},
      {"measurement": "MIC", "setting": "[2]; Staphylococcus aureus, MRSA / MSSA / USA300, USA300 FPR3757, CA-MRSA", "result": 2, "unit": "µg/mL"},
      {"measurement": "MIC", "setting": "[2]; Staphylococcus aureus, MW2, CA-MRSA", "result": 2, "unit": "µg/mL"},
      {"measurement": "MIC", "setting": "[2]; Staphylococcus aureus, N315, MRSA", "result": 8, "unit": "µg/mL"}
    ]}
  ]
}
